The values that follow come from publication PMC5911580, “YL143, a novel mutant selective irreversible EGFR inhibitor, overcomes EGFR^L858R, T790M‐mutant resistance in vitro and in vivo” (Cancer Medicine, 2018).

The test system of data set [1] is A549 (EGFR^WT) cells. Description: CCK-8 cell growth assay, A549. The conditions noted are these: Homo sapiens, read-out: antiproliferative IC50 A549. The class given is cell-based. How it is done: (§1) Cells were seeded into 96‐well plates at a density of 1500~3000/well in complete medium overnight. Then, cells were treated with various concentrations (0.01~1000 nmol/L) of YL143 for additional 3 days. Viable cell numbers were determined by Cell Counting Kit 8 (CCK8, CK04, Dojindo Laboratories, Japan). Each assay consisted of three replicate wells and repeated at least three times. […] Each IC50 value was expressed as mean ± SD.

The subject of data set [2] is BaF3. Description: CCK-8 assay, BaF3 cells. The class given is cell-based. The conditions noted are these: Mus musculus, AV±SD, read-out: anti-proliferative activity BaF3. How it is done: as §1
(§2) The anti-proliferative activities of the compounds were evaluated using CCK-8 assay. The data were means from at least four independent experiments.

Data set [3] has as its system A431 (EGFR^WT) cells. Description: CCK-8 cell growth assay, A431. The class given is cell-based. The conditions noted are these: Homo sapiens, read-out: antiproliferative IC50 A431. As for the experimental part: as §1
For orientation: Tetrazolium dyes change colour on reduction, which living cells bring about.

The conditions of data set [4]: cited from earlier work; for median progression-free survival (PFS): patients with NSCLC with EGFR^L858R or EGFR^del19, improved from 4.6.
Data set [5] deals with HCC827 (EGFR^del 19) cells. Description: CCK-8 cell growth assay, HCC827. Type of data set: cell-based. The conditions noted are these: Homo sapiens, read-out: antiproliferative IC50 HCC827. How it is done:
as §1

The subject of data set [6] is BaF3-EGFR ^L858R. Description: CCK-8 assay, BaF3-EGFR L858R stable cells. The class given is cell-based. The conditions noted are these: Ba/F3 EGFR-L858R, read-out: anti-proliferative activity BaF3-EGFR L858R. How it is done: as §1, §2
In data set [7] the target is IR (Homo sapiens, UniProt P06213). Description: FRET-based Z'-Lyte kinase assay, IR. The class given is biochemical. The conditions noted are these: AV ± SD; 1.5 h incubation. How it is done:
(§3) The kinase activity assay was performed and optimized according to the instructions of Z’‐LYTE™ kinase assay kits from the manufacturer (PV4879, Life, America). In our experiments, 10 concentration gradients from 0.01 nmol/L to 1.0 μmol/L were used for all the compounds.

Data set [8] concerns the target IGF1R (Homo sapiens, UniProt P08069). Description: FRET-based Z'-Lyte kinase assay, IGF1R. The class given is biochemical. The conditions noted are these: AV ± SD; 1.5 h incubation. As for the experimental part: as §3
The subject of data set [9] is H1975 (EGFR^L858R/T790M) cells. Description: CCK-8 cell growth assay, H1975. The conditions noted are these: Homo sapiens, read-out: antiproliferative IC50 H1975. The class given is cell-based. As for the experimental part:
as §1

The conditions of data set [10]: cited from earlier work.

The structures appear in SMILES notation. Where two headings read alike, the source gives them in different places. Bounds are passed on as bounds.

IR, sequence (P06213 28-1382): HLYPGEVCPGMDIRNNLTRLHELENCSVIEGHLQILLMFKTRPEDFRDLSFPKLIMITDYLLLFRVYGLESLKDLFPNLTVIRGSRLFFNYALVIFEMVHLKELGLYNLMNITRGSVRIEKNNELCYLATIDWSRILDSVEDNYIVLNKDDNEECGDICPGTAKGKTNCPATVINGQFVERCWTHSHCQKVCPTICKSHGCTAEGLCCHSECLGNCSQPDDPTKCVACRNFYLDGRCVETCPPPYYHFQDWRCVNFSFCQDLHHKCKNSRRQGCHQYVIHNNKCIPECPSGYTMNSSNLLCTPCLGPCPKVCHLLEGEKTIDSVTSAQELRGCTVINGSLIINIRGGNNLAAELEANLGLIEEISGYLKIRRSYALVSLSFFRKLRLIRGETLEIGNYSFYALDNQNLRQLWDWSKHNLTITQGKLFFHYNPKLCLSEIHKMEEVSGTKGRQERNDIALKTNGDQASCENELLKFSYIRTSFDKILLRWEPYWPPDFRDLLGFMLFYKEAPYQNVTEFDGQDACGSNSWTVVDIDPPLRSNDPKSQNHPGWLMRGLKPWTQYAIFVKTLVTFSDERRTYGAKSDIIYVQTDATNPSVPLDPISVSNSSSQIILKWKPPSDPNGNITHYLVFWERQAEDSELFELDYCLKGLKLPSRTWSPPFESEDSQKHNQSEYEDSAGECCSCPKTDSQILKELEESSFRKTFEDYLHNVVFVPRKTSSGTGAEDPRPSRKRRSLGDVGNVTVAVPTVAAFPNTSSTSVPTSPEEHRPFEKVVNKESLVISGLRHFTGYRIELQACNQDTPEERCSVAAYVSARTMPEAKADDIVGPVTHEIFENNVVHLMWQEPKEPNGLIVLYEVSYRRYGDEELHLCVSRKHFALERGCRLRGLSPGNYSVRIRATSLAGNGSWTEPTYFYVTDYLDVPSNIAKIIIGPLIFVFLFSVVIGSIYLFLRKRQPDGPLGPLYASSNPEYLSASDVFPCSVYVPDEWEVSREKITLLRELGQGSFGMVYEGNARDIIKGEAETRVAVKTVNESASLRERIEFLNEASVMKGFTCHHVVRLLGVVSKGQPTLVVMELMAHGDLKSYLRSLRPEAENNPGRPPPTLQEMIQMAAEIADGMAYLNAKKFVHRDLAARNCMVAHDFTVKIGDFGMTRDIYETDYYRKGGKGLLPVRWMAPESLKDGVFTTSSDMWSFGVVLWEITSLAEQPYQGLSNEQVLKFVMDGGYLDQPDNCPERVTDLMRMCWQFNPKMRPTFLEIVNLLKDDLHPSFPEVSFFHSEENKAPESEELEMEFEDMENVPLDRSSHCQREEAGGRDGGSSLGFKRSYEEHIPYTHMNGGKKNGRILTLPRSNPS
IGF1R, sequence (P08069 31-1367, species assumed): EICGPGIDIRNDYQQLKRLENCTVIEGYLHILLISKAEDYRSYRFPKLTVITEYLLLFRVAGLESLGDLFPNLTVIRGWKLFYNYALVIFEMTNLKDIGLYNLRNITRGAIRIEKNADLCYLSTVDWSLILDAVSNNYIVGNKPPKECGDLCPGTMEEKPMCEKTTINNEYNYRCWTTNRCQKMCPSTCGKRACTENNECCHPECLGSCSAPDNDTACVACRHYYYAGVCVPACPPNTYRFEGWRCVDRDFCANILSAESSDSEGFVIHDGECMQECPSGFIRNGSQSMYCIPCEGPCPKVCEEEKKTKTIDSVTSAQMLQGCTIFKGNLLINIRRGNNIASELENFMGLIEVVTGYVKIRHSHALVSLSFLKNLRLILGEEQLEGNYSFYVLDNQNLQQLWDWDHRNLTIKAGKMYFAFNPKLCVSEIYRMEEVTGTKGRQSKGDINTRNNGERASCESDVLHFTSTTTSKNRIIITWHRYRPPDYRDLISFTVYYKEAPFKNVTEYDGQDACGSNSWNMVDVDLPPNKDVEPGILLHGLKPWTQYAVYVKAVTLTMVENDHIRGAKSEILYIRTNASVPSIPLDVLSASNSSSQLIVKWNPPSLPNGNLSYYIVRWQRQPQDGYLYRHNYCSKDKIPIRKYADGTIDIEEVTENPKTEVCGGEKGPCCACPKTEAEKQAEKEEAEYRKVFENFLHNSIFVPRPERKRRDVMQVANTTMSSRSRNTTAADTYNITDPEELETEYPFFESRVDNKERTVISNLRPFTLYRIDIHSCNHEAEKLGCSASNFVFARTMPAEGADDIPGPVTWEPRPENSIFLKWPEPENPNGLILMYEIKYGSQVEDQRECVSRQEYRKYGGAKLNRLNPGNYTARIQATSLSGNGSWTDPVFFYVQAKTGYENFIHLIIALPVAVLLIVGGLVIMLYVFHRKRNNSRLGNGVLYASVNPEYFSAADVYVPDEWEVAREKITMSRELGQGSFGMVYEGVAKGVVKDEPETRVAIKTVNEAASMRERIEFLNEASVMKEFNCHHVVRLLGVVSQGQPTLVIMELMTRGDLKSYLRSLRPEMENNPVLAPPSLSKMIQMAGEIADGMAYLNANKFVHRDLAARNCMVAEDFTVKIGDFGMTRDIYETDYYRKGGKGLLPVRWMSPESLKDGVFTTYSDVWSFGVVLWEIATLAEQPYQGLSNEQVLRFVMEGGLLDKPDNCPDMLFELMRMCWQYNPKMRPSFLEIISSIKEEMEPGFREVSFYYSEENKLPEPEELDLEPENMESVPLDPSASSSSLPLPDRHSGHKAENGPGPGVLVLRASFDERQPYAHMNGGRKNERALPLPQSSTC

In the case of `C=CC(=O)Nc1cc(Nc2nccc(-c3cn(C)c4ccccc34)n2)c(OC)cc1N(C)CCN(C)C` [AZD9291, Osimertinib], the IC50 in data set [1] (A549, 72 h) is […]; in data set [2], 6170 ± 2980 nM; in data set [3] (A-431, 72 h), […]; in [5] (HCC827, 72 h), 3.9 ± 3.5 nM; in data set [6], 24 ± 25 nM; in data set [7], 235 nM. Moreover, the IC50 was 277 nM in data set [8] and 40.3 ± 16.6 nM in [9] (NCI-H1975, 72 h). In addition, the “PFS (progression-free survival)” value in data set [4] (improved from 10.2) is listed as 18.9 months.
In the case of `C=CC(=O)Nc1cccc(Nc2nc(Nc3ccc(N4CCN(C(C)=O)CC4)cc3OC)ncc2C(F)(F)F)c1` [CO1686, Rociletinib], the IC50 in data set [1] (A549, CCK-8, 72 h) is more than 1000 nM; in data set [2] it was 2340 ± 1660 nM; in data set [3] (A-431, CCK-8, 72 h) it was more than 1000 nM; in data set [5] (HCC827, CCK-8, 72 h, AV ± SD), 67.2 ± 19.5 nM; in [6] (CCK-8, AV±SD), 69 ± 48 nM; in data set [7], 12.8 ± 0.8 nM. For the same compound, the IC50 in [8] came to 47.5 ± 8.4 nM; in data set [9] (NCI-H1975, CCK-8, 72 h, AV ± SD), 41.8 ± 25.1 nM. Also, the hyperglycemia result was “about 40 % patients” in data set [10] (clinical investigation) and 47% in data set [10] (patients, clinical study).
Turning to `C#Cc1cccc(Nc2ncnc3cc(OCCOC)c(OCCOC)cc23)c1` [erlotinib], the “median progression-free survival (PFS)” value in data set [4] is on record as 13.1 months.
On to `COc1cc2ncnc(Nc3ccc(F)c(Cl)c3)c2cc1OCCCN1CCOCC1` [Gefitinib], for which the “median progression-free survival (PFS)” value in [4] is given as 13.1 months.
